{"source": "patent US20050180954A1", "about": "“Drug for treating bone disorders” (priority 1995, published 2005)", "assay_type_in_all_cases": "cell-based, mouse", "key": {"[1]": {"system": "osteoclast like cells from bone marrow cells of mice of ddy strain", "assay": "Formation of osteoclast like cells from bone marrow cells of mice of ddy strain", "description": "Bone marrow cells were prepared in accordance with the method by Takahashi et al (Takahashi, N. et al., Endocrinology, 122, 1373, 1988). Male mice of ddy strain of 7 weeks old were exanguinated to death under ether anesthesia and the femur and the tibia of hind legs were collected from each mouse. The connective tissues on the surfaces of the bones were carefully removed, and both ends of each bone were cut off with scissors. The bone marrow cells were suspended in α-Minimum Essential Medium (α-MEM, Nissui Pharmaceuticals Co.) containing 10% pre-colostrum new born calf serum (Mitsubishi Chemical, hereinafter referred to as “JCS” for short) and the suspension was flushed out through a 25 G needle attached to a syringe to collect the suspension in a centrifugal tube. The collected suspension was washed by centrifugation in the same medium at 2000 rpm at 4° C. for 5 minutes. The precipitated cells were dispersed in the above-mentioned medium and the washing by centrifugation was repeated twice, thereby preparing bone marrow cells. Murine IFN-α (hereinafter referred to as “MuIFNα” for short), Lot. B13010, 106 units/ml/vial (Calbiochem-Novabiochem International, San Diego, Calif.), murine IFN-β (hereinafter referred to as “MuIFNβ” for short), Lot M-0034, 10 units/ml/vial (Toray Industries, Inc.) and murine IFNγ (hereinafter referred to as “MuIFNγ” for short), Lot 254F3, 2.06×10^6 units/ml (Genentech, Calif.) were respectively dissolved in 10% JCS-containing α-MEM (Nissui Pharmaceuticals Co.) to the desired concentrations. Active vitamin D3 ([…], Wako Pure Chemical Industries, Ltd., hereinafter referred to as “Vit D3” for short) was dissolved in argon-saturated ethanol, and the obtained solution was diluted so as to attain the final ethanol concentration of 0.1% in all of the culture systems.\n(§1) The number of viable bone marrow cells was counted using tripam blue dye exclusion test and the bone marrow cells were diluted with α-MEM containing 10% JCS, 10^−8M Vit D3, 10^−7 M dexamethasone to a population density of 1.5×10^6 cells/ml, followed by placing the resulting suspension in each well in 24-well plates in an amount of 0.45 ml/well. To each well, 50 μl of the medium containing varying concentration of IFN was added to make the volume to 0.5 ml/well and culturing was begun. At every three days, 0.4 ml of the culture medium was removed from each well and 0.4 ml of fresh medium (the above-mentioned medium containing the respective concentration of IFN) was added. On Day 8 from the beginning of the culturing, the medium was removed and the cells were fixed with mixed solution of ethyl alcohol and diethyl ether (1:1) and the cells were stained with tartrate resistant acid phosphatase (TRAP), followed by counting TRAP positive multinuclear cells with a phase contrast microscope. […] The inhibition effect of IFNγ was stronger than that of IFNβ. That is, the inhibition concentration IC50 of IFNγ was not more than 0.1 units/ml, and that of IFNβ was 0.2 units/ml.\nThe effects of the three murine IFNs, that is, MuIFNβ, γ and α in terms of abilities to inhibit formation of osteoclast like cells from bone marrow cells in mice of ddy strain were compared. The test was carried out as in Example 1. All of the murine IFNs inhibited the formation of osteoclast like cells, and the effect was strong in the order of γ, β and α. […] Thus, the activity of IFNα to inhibit formation of osteoclasts was about 1/20 of that of IFNβ and about not more than 1/100 of that of IFNγ."}, "[2]": {"system": "osteoclast like cells from bone marrow cells of mice of C 57 BL/6 strain", "assay": "Formation of osteoclast like cells from bone marrow cells of mice of C 57 BL/6 strain", "settings": "Example 2, C 57 BL/6 strain bone marrow cells", "description": "as §1\nIn place of mice of ddy strain, male mice of C 57 BL/6 of 7 weeks old were used. The mice were exanguinated to death under ether anesthesia and the femur and the tibia of hind legs were collected from each mouse. The connective tissues on the surfaces of the bones were carefully removed, and both ends of each bone were cut off with scissors. The bone marrow cells were suspended in α-MEM containing 10% JCS and the suspension was flushed out through a 25 G needle attached to a syringe to collect the suspension in a centrifugal tube. The collected suspension was washed by centrifugation in the same medium at 2000 rpm at 4° C. for 5 minutes. The precipitated cells were dispersed in the above-mentioned medium and the washing by centrifugation was repeated twice. Formation of osteoclast like cells was measured by the same method as in Example 1."}, "MC3T3-E1 cells": {"system": "MC3T3-E1 cells", "assay": "Proliferation of murine osteoblastic cells MC3T3-E1 (in vitro single administration)", "settings": "10,000 units/ml; cell count on Day 6", "description": "Murine osteoblast like cells MC3T3-E1 originated from C 57 BL/6 mouse (Kodama et al., Jap. J. Oral Biol., 23, 899, 1982) were washed with PBS(−) and the cells were dissociated by incubation in PBS(−) containing 0.1% pronase (Actinase E, Kaken Pharmaceuticals Co.), followed by dispersing the cells in α-MEM containing 10% JCS and 50 μg/ml of L-ascorbic acid (ASA). The ability to promote proliferation of cells was evaluated as follows. That is, MC3T3-E1 cells were placed in each well in 24-well plates (Corning) in an amount of 5000 cells/well. Then each IFN dilution was added to each well in an amount of 0.1 ml/well, and the culturing was begun. On Day 2, the medium was removed and the each IFN dilution was added in an amount of 0.5 ml/well (total amount of liquid: 0.5 ml/well). On Day 6, the medium was removed and the cells were washed with PBS(−) and a mixed enzyme solution of 0.1% pronase/0.1% collagenase was added to each well in an amount of 200 μl/well, followed by allowing to react at 37° C. for 15 minutes. Then α-MEM containing 10% fetal calf serum (Gibco, hereinafter referred to as “FCS” for short) was added in an amount of 300 μl/well to disperse the cells therein and the number of the cells was counted with a Coulter counter."}}, "data": [{"substance": "MuIFNβ: murine interferon β, Lot M-0034, prepared by Toray Industries, Inc. by genetic engineering technique", "values": [{"measurement": "inhibition of formation of osteoclast like cells", "setting": "[1]; Example 1, Day 8, TRAP positive multinuclear cells", "value": "strongly inhibited formation of osteoclast like cells"}, {"measurement": "inhibition concentration IC50 of formation of osteoclast like cells", "setting": "[1]; Example 1, Vit D3 + dexamethasone, Day 8, TRAP positive multinuclear cells", "value": 0.2, "unit": "units/ml"}, {"measurement": "IC50 of inhibition of formation of osteoclast like cells", "setting": "[1]; Example 8 comparison of three murine IFNs", "value": "about 0.9 units/ml"}, {"measurement": "inhibition of formation of osteoclast like cells", "setting": "[2]", "value": "strongly inhibited formation of osteoclast like cells"}, {"measurement": "IC50 of formation inhibition of osteoclast like cells", "setting": "[2]; Day 8", "value": 0.1, "unit": "units/ml"}, {"measurement": "inhibition of proliferation of MC3T3-E1 cells", "setting": "MC3T3-E1 cells", "value": "did not inhibit the proliferation at all"}]}]}
